Measured values published in patent publication US11707448B2, “Combination therapies for the treatment of cancer” (Eisai R&D Management Co., Ltd., priority 2014, dated 2023).

Assays:
[1] = test system: 4T1 tumors; test: Challenge of cured (tumor-free) mice with 4T1 cells; format: in vivo; conditions: mice cured by ER-886046 + radiation; vs control (naive) group
Excerpt: FIG. 4A to FIG. 4C. Long lasting anti-tumor effect with a memory immune response by ER-886046/radiation treatment. Panel shown in FIG. 4A) Tumor growth in the cured mice by ER-886046 and radiation combination treatment or in the naïve Ba1B/c mice that received injection of CT26 cells. Panel shown in FIG. 4B) Tumor growth of secondarily challenged CT-26 tumors in the cured mice or in naïve mice. Panel shown in FIG. 4C) Growth of 4T1 tumors in cured mice or in naïve mice. N=9-10. Note the complete rejection of challenged CT-26 tumor and reduced growth of challenged 4T1 tumors in the combination cured mice. ***, p<0.001. 2 tailed student t-test. Note that no treatment was applied to any animals.
(§1) In case of tumor rechallenge of tumor-free mice after treatments, CT26 cells and 4T1 cells were individually sc injected into the different flanks of the same mouse, and the growth of each tumor was measured and graphed as described above. Naïve mice that received neither cancer cell injection nor drug treatment were included as controls. […] At the end of study on day 27, the mice in all treatment groups were intranasally administered luciferin and the lungs were resected and analysed for luciferase expression using IVIS instrument. Quantification of the luciferase activity in the lungs was achieved by software Living Image.

[2] = test system: CT26 tumors; test: Bilateral CT26 tumor model (abscopic effect); format: in vivo, mice
Description: FIG. 5A to FIG. 5B. Anti-tumor effect of ER-886046/radiation in a bilateral tumor model. Two similar-sized CT-26 tumors were grown in a host by injecting CT26 cells subcutaneously on both right and left flanks of Ba1B/c mice. Radiation was applied to the right flank tumor on both day 9 and day 13 as indicated by arrows in panel A. ER-886046 was administered daily po to the animals at a dose of 150 mg/kg as indicated by the bars. ER-886046 was dosed to animals from day 9 to day 27. Panel shown in FIG. 5A) Average size of the right flank tumor that received radiation and ER-886046. Panel shown in FIG. 5B) Average size of the left flank tumor that received no radiation (radiation administered only to the right flank tumor).
Abscopic effect of the combination treatment of ER-886046 and radiation in an animal model. Induction of anti-tumor immune response can be systemic and thus highly valuable for treating metastatic cancer, which has multiple lesions in one host. To mimic the large metastatic lesions in mice, we simultaneously grew CT26 tumors on both sides of an individual mouse by subcutaneously injecting cancer cells. The tumors on the right side of the mice were treated with both radiation and ER-886046. The tumors on the left side of the mice received ER-886046 only.

[3] = test system: 4T1-luc2 tumors; test: Spontaneous lung metastasis in 4T1-luc2 breast tumor model; format: in vivo, mice; conditions: ER-886046 150 mg/kg po daily days 9-27 + single radiation 9 Gy; day 27
Description: FIG. 6A to FIG. 6B. Anti-pulmonary metastasis activity of ER-886046/radiation in breast 4T1 tumor model. 4T1-luc2 cells were subcutaneously (sc) inoculated into the Ba1B/c mice. When the average size of tumors reached 100 mm^3, the tumors were radiated with a dose of 9 Gy once with or without daily oral administration of ER-886046 at dose of 150 mg/kg. Panel shown in FIG. 6A) At the end of study on day 27, lung metastasis of the animals was analyzed and quantified by luciferase expression. Panel shown in FIG. 6B) Representative IVIS images of each group are shown. Student t-test was used for statistic analysis.
as §1, with “above.” for “above. Naïve mice that received neither cancer cell injection nor drug treatment were included as controls.”
Anti-spontaneous metastatic effect of ER-886046 and radiation combination therapy. […] At day 27, the mice in all treatment groups were intranasally administered luciferin and the lungs were resected and analyzed for luciferase expression.

For `C[C@H](NC(=O)c1c(C(F)F)nn(C)c1Oc1cccc(C(F)(F)F)c1)c1ccc(C(=O)O)cc1` [ER-886046], the “growth of 4T1 tumors in cured mice” value [1] was “no rejection of the tumor, but the growth rate was significantly reduced”, the “growth of right side tumor (radiated)” value ([2]; ER-886046 150 mg/kg po daily day 9-27 + radiation of right flank tumor day 9 and 13, vs radiation alone or ER-886046 alone) was “better tumor growth suppression” and the “growth of left side tumor (not radiated)” value ([2]; ER-886046 150 mg/kg po daily day 9-27, radiation only to right flank tumor, vs no ER-886046 treatment) was “significantly reduced tumor growth rate”. For the same compound, the “luciferase expression in lungs (lung metastasis)” value [3] was “significant reduction”.
